Measured values taken from BindingDB's records for doi:10.1021/jm020134i (Northwestern University, 2002).

Assay: Concentration dependent inactivation of gGamma-amino-N-butyrate transaminase

N[C@@H]1C=CC[C@H](C(=O)O)C1 [5-Amino-cyclohex-3-enecarboxylic acid]
Ki: 2300 µM
